# Assays:
# hhIYD [1] = biological target: T1, hhIYD (Haliscomenobacter hydrossis, UniProt F4KU78); assay: Quenching of FMNox fluorescence, ligand binding to hhIYD
# T1 sequence (F4KU78 1-222): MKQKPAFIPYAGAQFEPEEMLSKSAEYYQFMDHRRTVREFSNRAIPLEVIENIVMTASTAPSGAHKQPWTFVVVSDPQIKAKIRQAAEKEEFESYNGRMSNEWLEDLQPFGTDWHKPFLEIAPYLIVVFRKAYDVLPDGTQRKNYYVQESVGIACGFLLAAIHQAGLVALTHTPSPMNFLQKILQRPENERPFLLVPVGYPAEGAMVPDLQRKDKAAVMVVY
# human IYD = biological target: T2, human IYD (Homo sapiens, UniProt Q6PHW0); assay: Catalytic deiodination by human IYD; type: biochemical
# T2 sequence (Q6PHW0 with tags, fused parts or gaps): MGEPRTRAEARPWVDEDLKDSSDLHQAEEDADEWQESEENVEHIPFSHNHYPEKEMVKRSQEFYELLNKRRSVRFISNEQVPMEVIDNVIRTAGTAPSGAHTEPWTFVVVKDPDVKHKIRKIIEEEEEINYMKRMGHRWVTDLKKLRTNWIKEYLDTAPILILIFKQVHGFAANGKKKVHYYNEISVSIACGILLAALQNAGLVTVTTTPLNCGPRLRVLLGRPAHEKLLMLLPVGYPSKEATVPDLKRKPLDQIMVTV
# hhIYD [2] = biological target: T1, hhIYD; assay: Anaerobic reduction of hhIYD by xanthine and xanthine oxidase; type: biochemical; conditions: hhIYD 20 μM; F-Tyr 500 μM or 2IP 800 μM
# [3] = Intrinsic reactivity of free cofactor FMNhq with 2IP; type: biochemical; conditions: FMN 2.5 μM, 2IP 5 mM, dithionite 0.5% w/v, 2 h incubation; threshold ~ 3 nmol
# hhIYD [4] = biological target: T1, hhIYD; type: biochemical
# IYD = conditions: cited from earlier work
compound,measurement,setting,value
"Oc1ccccc1I [2IP, 2-iodophenol]",increase in affinity for hhIYD relative to human IYD,hhIYD [1]; hhIYD relative to human IYD,~ 20 fold
same,Km greater than that for I-Tyr,human IYD,560 fold
same,kcat less than that for I-Tyr,human IYD,26 fold
same,accumulation of the FMNsq intermediate during reduction,hhIYD [2],did not detectably promote an accumulation of the FMNsq intermediate
same,phenol formed with free FMN,[3],no phenol was detected
"N#Cc1ccc(O)c(I)c1 [2IPCN, 4-cyano-2-iodophenol]",Kd lower than that of 2IP,hhIYD [1]; hhIYD,~50 fold
same,deiodination by the bacterial deiodinase,hhIYD [4]; hhIYD,not detectably deiodinated
"O=C(O)c1ccc(O)c(I)c1 [2IPCOOH, 4-hydroxy-3-iodobenzoic acid]",Km larger than that for 2IP,hhIYD [4]; hhIYD,75%
"Nc1ccc(O)c(I)c1 [4A2IP, 4-amino-2-iodophenol]",Kd larger than that for 2IP,hhIYD [1]; hhIYD,40%
same,kcat/Km greater than the parent 2IP,hhIYD [4]; hhIYD,~6 fold
"N[C@@H](Cc1ccc(O)c(F)c1)C(=O)O [F-Tyr, 3-fluoro-L-tyrosine, reference compound]",Kd,hhIYD [1],46 ± 2 µM
"N[C@@H](Cc1ccc(O)c(I)c1)C(=O)O [I-Tyr, 3-iodo-L-tyrosine, reference compound]",weaker affinity for hhIYD than human IYD,hhIYD [1]; hhIYD relative to human IYD,~ 90 fold
same,Km greater than Kd,human IYD,> 80 fold
same,kcat/Km larger than that measured for I2-Tyr,human IYD; I2-Tyr by 125I-iodide release assay,50%
same,"increase in kcat/Km, hhIYD relative to human IYD",hhIYD [4]; hhIYD versus human IYD,16 fold
"O-(4-hydroxy-3,5-diiodophenoxy)-3,5-diiodo-L-tyrosine [Thyroxine]",dehalogenation by IYD,IYD,not dehalogenated by IYD

# — paper PMC5330855 (Biochemistry, 2017)
